We go through 10 molecules from ChEMBL document CHEMBL1201862, “PubChem BioAssay data set” (2004).

Some test systems named below: MDA-N; HL-60; NCI-H23; SW-620; SK-OV-3; SF-268; HOP-92; OVCAR-5; A549; SF-295; NCI/ADR-RES; M14; CCRF-CEM; Hs-578T; U-251; OVCAR-8; MCF7; NCI-H522; HCC 2998; T47D.
Holding throughout (experiment): NCI anticancer screen, dose series, 48 h

SMILES strings stand for the structures.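 Cultured in 96-well plates, cells were exposed to test compound for 48 hours across five concentrations. GI50 marks 50% less growth.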 Calls of active or inactive are those of the source. Cut-off read from the data, not from the text of the source: active = GI50 up to about 1.1 µM and inactive = higher.

As to `Oc1ccccc1/C=N/N1C(=S)N(c2ccccc2)C(=N\c2ccccc2)/C1=N/c1ccccc1`, the GI50 was 18.5 µM (inactive) in the assay with MDA-N; 30 µM (inactive) in the assay with HL-60; 11.1 µM (inactive) in the assay on NCI-H23; 22.3 µM (inactive) in the assay on SW-620; 13.9 µM (inactive) in the assay with SK-OV-3; 12.1 µM (inactive) in the assay on SF-268. In addition, the GI50 in the assay on HOP-92 is 4.57 µM (inactive); in the assay on OVCAR-5, 34 µM (inactive); in the assay with A549 it was 13.9 µM (inactive); in the assay on SF-295 it was 8.39 µM (inactive); with NCI/ADR-RES it was 13.6 µM (inactive); with M14, 15.1 µM (inactive). In addition, the GI50 was > 37 µM (inactive) in the assay on CCRF-CEM; 4.53 µM (inactive) in the assay on Hs-578T; 2.79 µM (inactive) in the assay on U-251; 4.97 µM (inactive) with OVCAR-8; > 100 µM (inactive) with MCF7; 3.89 µM (inactive) in the assay with NCI-H522. Besides, the GI50 in the assay on HCC 2998 was 23.1 µM (inactive); in the assay on T47D, 15.9 µM (inactive).

Take `CCOC(=O)CC1(Cc2ccc(OCc3ccccc3)cc2)C(=O)OC(c2ccccc2)N1C(=O)c1ccccc1` (stereo not given): the GI50 in the assay with MDA-N, with HL-60, in the assay on NCI-H23, with SW-620, in the assay with SK-OV-3 and in the assay with SF-268 was > 100 µM (inactive) in each case. Besides, the GI50 with HOP-92, with OVCAR-5, with A549, with SF-295, in the assay with NCI/ADR-RES and in the assay with M14 was > 100 µM (inactive) throughout. The GI50 in the assay with CCRF-CEM, in the assay on Hs-578T, with U-251, in the assay on OVCAR-8, with MCF7 and with NCI-H522 was > 100 µM (inactive) throughout. Also, the GI50 with HCC 2998 is 28 µM (inactive); in the assay on T47D, > 100 µM (inactive).

`Cc1nnc(N2C(=O)C(=Cc3ccc(Cl)cc3)N=C2c2ccc(Cl)cc2)nc1/C=C\c1ccc(N(C)C)cc1`: the GI50 in the assay on MDA-N is 73.1 µM (inactive); in the assay with HL-60, 93.8 µM (inactive); in the assay on NCI-H23 it was > 100 µM (inactive); with SW-620 it was > 100 µM (inactive); in the assay on SK-OV-3 it was > 100 µM (inactive); in the assay with SF-268, > 100 µM (inactive). For the same molecule, the GI50 in the assay on HOP-92 is > 100 µM (inactive); in the assay on OVCAR-5, > 100 µM (inactive); in the assay on A549, > 100 µM (inactive); with SF-295, > 100 µM (inactive); in the assay on NCI/ADR-RES, > 100 µM (inactive); in the assay on M14 it was 83.6 µM (inactive). The GI50 in the assay on CCRF-CEM, in the assay with Hs-578T, in the assay on U-251, with OVCAR-8, with MCF7 and in the assay with NCI-H522 was > 100 µM (inactive) each time. Also, the GI50 with HCC 2998 and in the assay on T47D was > 100 µM (inactive) in each case.

Consider `COc1cc(N(CCC#N)CCC#N)ccc1C(/N=N/c1cccc(C)c1)=N\NC(=O)c1ccc(C)cc1`, for which the GI50 with MDA-N was > 100 µM (inactive); in the assay on HL-60, 47.3 µM (inactive); in the assay on NCI-H23, > 100 µM (inactive); in the assay on SW-620 it was > 100 µM (inactive); in the assay with SK-OV-3 it was > 100 µM (inactive); with SF-268, 35.5 µM (inactive). Moreover, the GI50 is 65.9 µM (inactive) in the assay with HOP-92; > 100 µM (inactive) in the assay with OVCAR-5; > 100 µM (inactive) in the assay with A549; > 100 µM (inactive) in the assay on SF-295; > 100 µM (inactive) in the assay with NCI/ADR-RES; > 100 µM (inactive) in the assay with M14. The GI50 in the assay on CCRF-CEM was 97.3 µM (inactive); with Hs-578T, > 100 µM (inactive); with U-251, 45.8 µM (inactive); in the assay with OVCAR-8 it was > 100 µM (inactive); with MCF7, 29.1 µM (inactive); with NCI-H522, 80.5 µM (inactive). The GI50 with HCC 2998 was 79.3 µM (inactive); in the assay with T47D, 66.2 µM (inactive).

For the molecule `CC1=CC(=O)CC(C)(C)C1(O)/C=C/C(C)=C/C(=O)O` (stereo not given), the GI50 in the assay with MDA-N, in the assay with HL-60, in the assay with NCI-H23, in the assay on SW-620, with SK-OV-3 and in the assay on SF-268 was > 100 µM (inactive) each time. Further, the GI50 in the assay with HOP-92, with OVCAR-5, in the assay with A549, in the assay on SF-295, in the assay with NCI/ADR-RES and in the assay with M14 was > 100 µM (inactive) throughout. Moreover, the GI50 in the assay on CCRF-CEM, in the assay on Hs-578T, in the assay on U-251, in the assay on OVCAR-8, in the assay on MCF7 and in the assay with NCI-H522 was > 100 µM (inactive) each time. The GI50 with HCC 2998 and in the assay on T47D was > 100 µM (inactive) each time.

As to `c1cc2nnc1SCCSCCSc1ccc(nn1)SCCSCCS2`, the GI50 in the assay on MDA-N, with HL-60, in the assay with NCI-H23, in the assay on SW-620, in the assay with SK-OV-3 and with SF-268 was > 100 µM (inactive) each time. Besides, the GI50 with HOP-92, in the assay on OVCAR-5, in the assay on A549, in the assay with SF-295, in the assay with NCI/ADR-RES and with M14 was > 100 µM (inactive) each time. Moreover, the GI50 with CCRF-CEM, in the assay with Hs-578T, in the assay on U-251, in the assay with OVCAR-8, in the assay on MCF7 and with NCI-H522 was > 100 µM (inactive) throughout. Also, the GI50 in the assay with HCC 2998 and with T47D was > 100 µM (inactive) throughout.

As for `Cc1cccc(-c2cc(O)c3c(C)cc(C)nc3n2)c1`, the GI50 with MDA-N is 0.313 µM (active); with HL-60, 0.838 µM (active); with NCI-H23, 3.65 µM (inactive); with SW-620, 0.792 µM (active); in the assay on SK-OV-3 it was 2.24 µM (inactive); in the assay on SF-268, 6.21 µM (inactive). Moreover, the GI50 in the assay with HOP-92 is 35.4 µM (inactive); in the assay with OVCAR-5 it was 5.15 µM (inactive); in the assay with A549, 3.66 µM (inactive); with SF-295 it was 2.72 µM (inactive); with NCI/ADR-RES it was 1.65 µM (inactive); in the assay with M14, 2.29 µM (inactive). In addition, the GI50 in the assay with CCRF-CEM was 3.45 µM (inactive); in the assay on Hs-578T, 2.52 µM (inactive); in the assay on U-251 it was 2.79 µM (inactive); in the assay on OVCAR-8, 5.58 µM (inactive); with MCF7, 0.962 µM (active); in the assay with NCI-H522 it was 0.658 µM (active). Also, the GI50 was 4.9 µM (inactive) in the assay with HCC 2998 and 3.96 µM (inactive) in the assay on T47D.

For the molecule `O=C(O)CNCc1c2ccccc2nc2ccccc12`, the GI50 in the assay on MDA-N was 32.4 µM (inactive); with HL-60, 7.64 µM (inactive); in the assay with NCI-H23 it was 35.6 µM (inactive); in the assay with SW-620, 26.4 µM (inactive); in the assay with SK-OV-3 it was > 76.4 µM (inactive); in the assay on SF-268, 32.7 µM (inactive). Further, the GI50 in the assay on HOP-92 is 15.6 µM (inactive); with OVCAR-5 it was > 85.9 µM (inactive); in the assay with A549 it was 43.4 µM (inactive); in the assay on SF-295 it was 48.4 µM (inactive); with NCI/ADR-RES, 26.5 µM (inactive); in the assay on M14, 47.6 µM (inactive). Also, the GI50 with CCRF-CEM was 7.24 µM (inactive); in the assay on Hs-578T, 20.4 µM (inactive); in the assay on U-251 it was 60 µM (inactive); in the assay on OVCAR-8, 32.9 µM (inactive); in the assay with MCF7 it was 27.7 µM (inactive); with NCI-H522, 22 µM (inactive). For the same molecule, the GI50 is 58.6 µM (inactive) with HCC 2998 and 31.7 µM (inactive) in the assay on T47D.

For the molecule `O=[N+]([O-])c1ccc2nc3c(nc2c1)-c1c2ccccc2cc2cccc-3c12`, the GI50 with MDA-N was 10.5 µM (inactive); in the assay with HL-60, 20.5 µM (inactive); in the assay on NCI-H23, 3.61 µM (inactive); in the assay on SW-620, 4.83 µM (inactive); in the assay on SK-OV-3, 17.5 µM (inactive); in the assay with SF-268, 13.8 µM (inactive). Moreover, the GI50 in the assay with HOP-92 is 14.9 µM (inactive); in the assay with OVCAR-5, 51.8 µM (inactive); in the assay on A549, 48.6 µM (inactive); with SF-295, 19.6 µM (inactive); in the assay on NCI/ADR-RES it was 3.97 µM (inactive); in the assay with M14, 31.3 µM (inactive). The GI50 in the assay with CCRF-CEM is 6.12 µM (inactive); in the assay on Hs-578T it was 5.37 µM (inactive); with U-251, 5.9 µM (inactive); in the assay with OVCAR-8 it was 7.55 µM (inactive); in the assay with MCF7, 4.06 µM (inactive); with NCI-H522, 3.3 µM (inactive). Further, the GI50 in the assay on HCC 2998 is 33.3 µM (inactive); in the assay on T47D, 0.142 µM (active).

With `COc1ccc(-c2c(CN3CCOCC3)sc3nc4ccccc4n23)cc1`, the GI50 with MDA-N was 2.06 µM (inactive); in the assay on HL-60 it was 9.42 µM (inactive); in the assay on NCI-H23, 27.4 µM (inactive); in the assay on SW-620 it was 12.2 µM (inactive); in the assay on SK-OV-3, 21.6 µM (inactive); in the assay with SF-268, 18.5 µM (inactive). Also, the GI50 was 23.1 µM (inactive) with HOP-92; 32.3 µM (inactive) in the assay on OVCAR-5; 22.2 µM (inactive) in the assay with A549; 9.08 µM (inactive) with SF-295; 4.92 µM (inactive) in the assay on NCI/ADR-RES; 7.53 µM (inactive) in the assay with M14. In addition, the GI50 in the assay on CCRF-CEM was 0.0435 µM (active); in the assay with Hs-578T, 21.6 µM (inactive); in the assay with U-251, 16.1 µM (inactive); in the assay with OVCAR-8, 26.5 µM (inactive); in the assay on MCF7, 8.32 µM (inactive); in the assay with NCI-H522 it was 2.58 µM (inactive). The GI50 in the assay on HCC 2998 is 19 µM (inactive); in the assay on T47D, 18 µM (inactive).
